Experimental data from article PMC7394242 (Journal of molecular biology, 2020).

Legend:
sRI-sT complex = sRI-sT complex (Enterobacteria phage T4, UniProt P06808+P13304); test: biochemical; assay type: binding
crystal structure = target: the molecule itself; test: crystal structure

Chain of sRI-sT complex (P06808 56-218, one chain of several): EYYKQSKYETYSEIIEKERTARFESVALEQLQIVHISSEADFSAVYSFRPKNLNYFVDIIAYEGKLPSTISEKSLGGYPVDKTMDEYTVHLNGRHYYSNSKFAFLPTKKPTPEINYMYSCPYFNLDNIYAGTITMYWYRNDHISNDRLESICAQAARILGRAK

| Molecule | Kd (sRI-sT complex) [µM] | stoichiometry N (crystal structure) |
| --- | --- | --- |
| Nc1nc2c(ncn2[C@@H]2O[C@H](CO)[C@@H](O)[C@H]2O)c(=O)[nH]1 [guanosine] | 43 | – |
| periplasmic/soluble domain of the antiholin RI (sRI), residues 25-97, with C-terminal histidine tag (domain or fragment, T4 phage, UniProt P13304 25-97, looked up, disulfide bond between Cys69 and Cys75) NVDPHFDKFMESGIRHVYMLFENKSVESSEQFYSFMRTTYKNDPCSSDFECIERGAEMAQSYARIMNIKLETE | – | 4 |
